According to paper PMC9780857 (International Journal of Molecular Sciences, 2022):
Where two headings read alike, the source gives them in different places.

Assays:
hOCT2 = molecular target: T1, hOCT2 (Homo sapiens, UniProt O15244); assay: Inhibition of hOCT2-mediated 14C-metformin uptake in transfected HEK293 cells; assay type: cell-based; parameters: expressed in transfected cells; host or cells: HEK293 (stably transfected)
T1 sequence (O15244 1-555): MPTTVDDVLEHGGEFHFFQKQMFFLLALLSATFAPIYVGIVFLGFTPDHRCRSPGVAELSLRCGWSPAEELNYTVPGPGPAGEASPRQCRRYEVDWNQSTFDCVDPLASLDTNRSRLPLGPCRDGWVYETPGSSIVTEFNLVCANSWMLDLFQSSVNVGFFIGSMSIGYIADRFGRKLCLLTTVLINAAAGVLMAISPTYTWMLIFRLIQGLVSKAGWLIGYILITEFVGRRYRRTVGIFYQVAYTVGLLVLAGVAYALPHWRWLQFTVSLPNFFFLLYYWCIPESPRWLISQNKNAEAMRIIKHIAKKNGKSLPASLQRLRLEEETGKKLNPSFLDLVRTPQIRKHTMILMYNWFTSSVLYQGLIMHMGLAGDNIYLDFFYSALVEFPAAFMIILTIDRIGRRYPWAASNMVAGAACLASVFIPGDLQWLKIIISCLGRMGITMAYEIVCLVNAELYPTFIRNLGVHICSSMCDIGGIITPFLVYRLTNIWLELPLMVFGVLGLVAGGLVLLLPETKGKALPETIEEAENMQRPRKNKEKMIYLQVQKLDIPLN
Procedure: (§1) The uptake assays were performed as previously described in 24-well plates. […] After incubation, the uptake was stopped by aspirating the reaction mixture and washing the cells three times with 0.4 mL ice-cold PBS buffer. Cells were then solubilized with 0.6 mL of 1 N NaOH, overnight. The whole content of each well (0.6 mL) was transferred to a scintillation vial (Perkin Elmer). The radio-labelled amount was determined by liquid scintillation counting.
(§2) All inhibition experiments were conducted on at least two separate days in triplicate.
(§3) For screening experiments, cis-inhibition was carried out in duplicate by measuring the uptake of the labeled probe substrate in the absence and presence of 10 µM or 100 µM of the respective pesticide or drug. […] Inhibitory effects in percent were calculated from net-uptake. […]

mOct2 = molecular target: T2, mOct2 (Mus musculus, UniProt O70577); assay: Inhibition of mOct2-mediated 14C-metformin uptake in transfected HEK293 cells; assay type: cell-based; parameters: expressed in transfected cells; host or cells: HEK293 (stably transfected)
T2 sequence (O70577 1-553): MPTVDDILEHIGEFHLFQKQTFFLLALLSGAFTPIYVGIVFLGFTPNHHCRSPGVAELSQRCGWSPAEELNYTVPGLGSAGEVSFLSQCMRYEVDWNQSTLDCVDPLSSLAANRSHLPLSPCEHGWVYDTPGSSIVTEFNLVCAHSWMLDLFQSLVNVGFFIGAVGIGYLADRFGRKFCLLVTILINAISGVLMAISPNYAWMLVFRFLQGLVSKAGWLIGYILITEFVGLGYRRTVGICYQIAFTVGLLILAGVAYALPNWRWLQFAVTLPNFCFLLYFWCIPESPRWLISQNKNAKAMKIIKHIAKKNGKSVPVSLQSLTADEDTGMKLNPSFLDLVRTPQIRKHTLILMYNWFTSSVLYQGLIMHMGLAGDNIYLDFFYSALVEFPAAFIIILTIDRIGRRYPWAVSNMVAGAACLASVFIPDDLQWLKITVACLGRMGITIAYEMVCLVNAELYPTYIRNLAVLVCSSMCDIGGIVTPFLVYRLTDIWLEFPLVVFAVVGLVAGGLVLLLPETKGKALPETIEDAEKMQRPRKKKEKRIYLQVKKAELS
Procedure: as §1, §2, §3

[1] = substrate: C[n+]1ccc(-c2ccccc2)cc1; assay: cells, lysate or membranes; details: other: substrate, metformin 2 min, MPP 1 min, 37 °C, pH 7.4
[2] = HEK293, read-out: Inhibitory Effects (%) hOCT2 10 µM Mean
[3] = HEK293, read-out: Inhibitory Effects (%) hOCT2 100 µM Mean
[4] = HEK293, read-out: Inhibitory Effects (%) mOct2 10 µM Mean
[5] = HEK293, read-out: Inhibitory Effects (%) mOct2 100 µM Mean
[6] = 10 µM test compound; 1 µM [14C]metformin, 2 min, HEK293; negative = stimulation
[7] = HEK293; read-out: Inhibitory Effects (%) hOCT2 10 µM Mean
[8] = HEK293; read-out: Inhibitory Effects (%) hOCT2 100 µM Mean
[9] = HEK293; read-out: Inhibitory Effects (%) mOct2 10 µM Mean
[10] = HEK293; read-out: Inhibitory Effects (%) mOct2 100 µM Mean
[11] = HEK293, 10 µM test compound; 1 µM [14C]metformin, 2 min, HEK293; negative = stimulation; read-out: Inhibitory Effects (%) mOct2 10 µM Mean
[12] = HEK293, 100 µM test compound; 1 µM [14C]metformin, 2 min, HEK293; negative = stimulation; read-out: Inhibitory Effects (%) mOct2 100 µM Mean
[13] = HEK293, 10 µM test compound; 1 µM [14C]metformin, 2 min, HEK293; negative = stimulation; read-out: Inhibitory Effects (%) hOCT2 10 µM Mean
[14] = HEK293, 100 µM test compound; 1 µM [14C]metformin, 2 min, HEK293; negative = stimulation; read-out: Inhibitory Effects (%) hOCT2 100 µM Mean

Molecule: CCCN(CCOc1c(Cl)cc(Cl)cc1Cl)C(=O)n1ccnc1 [Prochloraz]
- inhibition at 10 µM (hOCT2; [2]): -43%
- inhibition at 100 µM (hOCT2; [3]): -17%
- inhibition at 10 µM (mOct2; [4]): -13%
- inhibition at 100 µM (mOct2; [5]): 10%

Molecule: CCCOC(=O)NCCCN(C)C [Propamocarb]
- Inhibitory Effects (%) hOCT2 10 µM Mean (hOCT2; [6]): negligible
- inhibition at 10 µM (hOCT2; [7]): 1%
- inhibition at 100 µM (hOCT2; [8]): 55%
- Inhibitory Effects (%) mOct2 10 µM Mean (mOct2; [6]): negligible
- inhibition at 10 µM (mOct2; [9]): -9%
- inhibition at 100 µM (mOct2; [10]): 48%

Molecule: C=C[C@H]1C[N@@]2CC[C@H]1C[C@@H]2[C@@H](O)c1ccnc2ccc(OC)cc12 [Quinidine]
- inhibition at 10 µM (hOCT2; [7]): -50%
- inhibition at 100 µM (hOCT2; [8]): -31%
- inhibition at 10 µM (mOct2; [11]): -38%
- inhibition at 100 µM (mOct2; [12]): -28%

Molecule: COC(=O)[C@H]1[C@H]2C[C@@H]3c4[nH]c5cc(OC)ccc5c4CCN3C[C@H]2C[C@@H](OC(=O)c2cc(OC)c(OC)c(OC)c2)[C@@H]1OC [Reserpine]
- inhibition at 10 µM (hOCT2; [13]): -13%
- inhibition at 100 µM (hOCT2; [14]): -27%
- inhibition at 10 µM (mOct2; [9]): -27%
- inhibition at 100 µM (mOct2; [10]): -19%

Molecule: COc1ccc(CCN(C)CCCC(C#N)(c2ccc(OC)c(OC)c2)C(C)C)cc1OC (stereo not shown) [Verapamil]
- inhibition at 10 µM (hOCT2; [2]): -8%
- inhibition at 100 µM (hOCT2; [3]): 44%
- inhibition at 10 µM (mOct2; [4]): 23%
- inhibition at 100 µM (mOct2; [5]): 73%

Molecule: O[C@@H](COc1cccc2ncccc12)CN1CCN([C@@H]2c3ccccc3[C@@H]3[C@H](c4ccccc42)C3(F)F)CC1 [Zosuquidar]
- inhibition at 10 µM (hOCT2; [13]): -10%
- inhibition at 100 µM (hOCT2; [14]): -47%
- inhibition at 10 µM (mOct2; [11]): -11%
- inhibition at 100 µM (mOct2; [12]): -30%

B1: hOCT2 (Homo sapiens) (protein)
chain: MPTTVDDVLEHGGEFHFFQKQMFFLLALLSATFAPIYVGIVFLGFTPDHRCRSPGVAELSLRCGWSPAEELNYTVPGPGPAGEASPRQCRRYEVDWNQSTFDCVDPLASLDTNRSRLPLGPCRDGWVYETPGSSIVTEFNLVCANSWMLDLFQSSVNVGFFIGSMSIGYIADRFGRKLCLLTTVLINAAAGVLMAISPTYTWMLIFRLIQGLVSKAGWLIGYILITEFVGRRYRRTVGIFYQVAYTVGLLVLAGVAYALPHWRWLQFTVSLPNFFFLLYYWCIPESPRWLISQNKNAEAMRIIKHIAKKNGKSLPASLQRLRLEEETGKKLNPSFLDLVRTPQIRKHTMILMYNWFTSSVLYQGLIMHMGLAGDNIYLDFFYSALVEFPAAFMIILTIDRIGRRYPWAASNMVAGAACLASVFIPGDLQWLKIIISCLGRMGITMAYEIVCLVNAELYPTFIRNLGVHICSSMCDIGGIITPFLVYRLTNIWLELPLMVFGVLGLVAGGLVLLLPETKGKALPETIEEAENMQRPRKNKEKMIYLQVQKLDIPLN
- Km [1]: 62 µM

B2: mOct2 (Mus musculus) (protein)
chain: MPTVDDILEHIGEFHLFQKQTFFLLALLSGAFTPIYVGIVFLGFTPNHHCRSPGVAELSQRCGWSPAEELNYTVPGLGSAGEVSFLSQCMRYEVDWNQSTLDCVDPLSSLAANRSHLPLSPCEHGWVYDTPGSSIVTEFNLVCAHSWMLDLFQSLVNVGFFIGAVGIGYLADRFGRKFCLLVTILINAISGVLMAISPNYAWMLVFRFLQGLVSKAGWLIGYILITEFVGLGYRRTVGICYQIAFTVGLLILAGVAYALPNWRWLQFAVTLPNFCFLLYFWCIPESPRWLISQNKNAKAMKIIKHIAKKNGKSVPVSLQSLTADEDTGMKLNPSFLDLVRTPQIRKHTLILMYNWFTSSVLYQGLIMHMGLAGDNIYLDFFYSALVEFPAAFIIILTIDRIGRRYPWAVSNMVAGAACLASVFIPDDLQWLKITVACLGRMGITIAYEMVCLVNAELYPTYIRNLAVLVCSSMCDIGGIVTPFLVYRLTDIWLEFPLVVFAVVGLVAGGLVLLLPETKGKALPETIEDAEKMQRPRKKKEKRIYLQVKKAELS
- Km [1]: 40 µM
